PubChem BioAssay AID256 (DTP/NCI, 2004)
Toxic doses and inconclusive results are not listed. The calls were made as follows: active = survival T/C of 150% or more; inactive = T/C below 125% in these data.

System: CD2F1 mice, L1210 leukemia ip, survival T/C
Assay: NCI In Vivo Anticancer Drug Screen. Data for tumor model L1210 Leukemia (intraperitoneal) in CD2F1 (CDF1) mice
Conditions: endpoint: mean survival time, higher = longer survival
Method in brief: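 Antitumor effect is scored in animals hosting a serially transplanted tumor. Values compare compound-dosed animals against vehicle-only controls as a simple quotient.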

[1] = dose: 75.0 mg/kg/injection, schedule: Q01DX001 (ip), vehicle: saline
[2] = dose: 150.0 mg/kg/injection, schedule: Q01DX001 (ip), vehicle: saline
[3] = dose: 100.0 mg/kg/injection, schedule: Q01DX009 (ip), vehicle: saline with Tween-80
[4] = dose: 200.0 mg/kg/injection, schedule: Q01DX009 (ip), vehicle: saline with Tween-80
[5] = dose: 400.0 mg/kg/injection, schedule: Q01DX009 (ip), vehicle: saline with Tween-80
[6] = dose: 100.0 mg/kg/injection, schedule: Q04DX003 (ip), vehicle: saline with Tween-80
[7] = dose: 200.0 mg/kg/injection, schedule: Q04DX003 (ip), vehicle: saline with Tween-80
[8] = dose: 400.0 mg/kg/injection, schedule: Q04DX003 (ip), vehicle: saline with Tween-80
[9] = dose: 50.0 mg/kg/injection, schedule: Q01DX009 (ip), vehicle: saline with Tween-80
[10] = dose: 100.0 mg/kg/injection, schedule: Q01DX001 (ip), vehicle: saline with Tween-80
[11] = dose: 200.0 mg/kg/injection, schedule: Q01DX001 (ip), vehicle: saline with Tween-80
[12] = dose: 400.0 mg/kg/injection, schedule: Q01DX001 (ip), vehicle: saline with Tween-80

Measured: T/C

O/N=C/C1CCCC[N-]1.[Co+3].[O-]/N=C/C1CCCC[N-]1.[O-]/N=C/C1CCCC[N-]1.[O-][Cl+3]([O-])([O-])O (stereo unspecified)
inactive: dose: 100.0 mg/kg/injection, schedule: Q01DX001 (ip), vehicle: saline 108 % of control | dose: 200.0 mg/kg/injection, schedule: Q01DX001 (ip), vehicle: saline 96 % of control | dose: 400.0 mg/kg/injection, schedule: Q01DX001 (ip), vehicle: saline 96 % of control

CCOC(=O)/C=C(/Nc1ccc(S(=O)(=O)F)cc1)c1ccccc1
inactive: dose: 100.0 mg/kg/injection, schedule: Q01DX009 (ip), vehicle: Klucel (hydroxypropylcellulose) (HPC) 100 % of control | dose: 200.0 mg/kg/injection, schedule: Q01DX009 (ip), vehicle: Klucel (hydroxypropylcellulose) (HPC) 100 % of control | dose: 400.0 mg/kg/injection, schedule: Q01DX009 (ip), vehicle: Klucel (hydroxypropylcellulose) (HPC) 97 % of control

CN(C)C(=Nc1ccccc1)N(C)N
inactive: [1] 97 % of control | [2] 100 % of control

BrC1CC2CC1C1C=CCC21 (stereo unspecified)
inactive: [3] 100 % of control | [4] 101 % of control | [5] 101 % of control

C[Si](C)(C)Nc1ncnc2c1ncn2[Si](C)(C)C
inactive: [3] 94 % of control | [6] 103 % of control | [4] 105 % of control | [7] 103 % of control | [5] 106 % of control | [8] 101 % of control

COc1cccc(/C=N/OCCNC(=O)c2ccc([N+](=O)[O-])cc2)c1
inactive: [6] 97 % of control | [7] 93 % of control | [8] 101 % of control

CC1C2CCC(C2)C1C(=O)O (stereo unspecified)
inactive: [3] 98 % of control | dose: 100.0 mg/kg/injection, schedule: Q04DX003 (ip), vehicle: other 94 % of control | [4] 94 % of control | dose: 200.0 mg/kg/injection, schedule: Q04DX003 (ip), vehicle: other 87 % of control | [5] 86 % of control | dose: 400.0 mg/kg/injection, schedule: Q04DX003 (ip), vehicle: other 90 % of control

COc1cc(-c2[nH]c(=S)[nH]c(=O)c2CCO)cc(OC)c1OC
inactive: [6] 98 % of control | [7] 98 % of control | [8] 91 % of control

CC(C)c1ccc(NC(=O)Nc2cccc3ccccc23)cc1
inactive: [6] 102 % of control | [7] 91 % of control | [8] 91 % of control

CCCCCCCCC1SC1CCCCCCCC(=O)NCCOC(=O)CCCCCCCC1SC1CCCCCCCC (stereo unspecified)
inactive: [3] 92 % of control | [4] 95 % of control | [5] 93 % of control

CC1=CC2=C(C=O)C(=O)[C@](C)(O)[C@@H](O)C2=CO1
inactive: dose: 12.5 mg/kg/injection, schedule: Q01DX009 (ip), vehicle: saline with Tween-80 114 % of control | dose: 25.0 mg/kg/injection, schedule: Q01DX009 (ip), vehicle: saline with Tween-80 111 % of control | [9] 122 % of control

Oc1ccc(-c2nc3ccccc3s2)cc1
inactive: [10] 91 % of control | [11] 95 % of control | [12] 91 % of control

CCCCCCC(C#N)C(=O)OCC (stereo unspecified)
inactive: [1] 100 % of control | [2] 96 % of control | dose: 300.0 mg/kg/injection, schedule: Q01DX001 (ip), vehicle: saline 100 % of control

OCC1(OC2OC(CBr)C(O)C(O)C2O)OC(CBr)C(O)C1O (stereo unspecified)
inactive: [9] 98 % of control | [3] 91 % of control | [4] 95 % of control

O=C(O)C(Br)C(Br)C(=O)O (stereo unspecified)
inactive: dose: 50.0 mg/kg/injection, schedule: Q01DX001 (ip), vehicle: carboxymethylcellulose (CMC) 98 % of control | dose: 100.0 mg/kg/injection, schedule: Q01DX001 (ip), vehicle: carboxymethylcellulose (CMC) 93 % of control | dose: 200.0 mg/kg/injection, schedule: Q01DX001 (ip), vehicle: carboxymethylcellulose (CMC) 95 % of control

COC(=O)c1cc(Cl)ccc1OCC(=O)Nc1ccccc1
inactive: [10] 90 % of control | [11] 94 % of control | [12] 94 % of control

CC(C(=O)OC1CCCC2OC12)S(=O)(=O)c1ccccc1 (stereo unspecified)
inactive: [9] 90 % of control | [3] 94 % of control | [4] 94 % of control
